Experimental data as given in ChEMBL document CHEMBL1201862, “PubChem BioAssay data set” (2004).
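1) Cells in 96-well plates. 2) Compound, 48 h, 5 concentrations. 3) Linear interpolation between surrounding doses. 4) Unreached endpoint = highest concentration. GI50 = concentration required for 50% inhibition of growth.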 Activity calls are given as the source filed them. Rule as the data show it: active = GI50 up to about 1.1 µM and inactive = higher.

Key:
Experiment in all cases: NCI tumour cell line growth inhibition, 48 h
[1] = system: 786-0
[2] = system: A549
[3] = system: ACHN
[4] = system: CAKI-1
[5] = system: CCRF-CEM
[6] = system: COLO 205
[7] = system: DLD-1
[8] = system: DMS-114
[9] = system: DMS-273
[10] = system: EKVX
[11] = system: HCT-116
[12] = system: HCT-15
[13] = system: HOP-18
[14] = system: HOP-62
[15] = system: HOP-92
[16] = system: HT-29
[17] = system: IGROV-1
[18] = system: K562
[19] = system: KM-20L2
[20] = system: KM12
[21] = system: LOX IMVI
[22] = system: LXFL 529
[23] = system: M14
[24] = system: M19-MEL
[25] = system: MOLT-4
[26] = system: Malme-3M
[27] = system: NCI-H226
[28] = system: NCI-H23
[29] = system: NCI-H460
[30] = system: NCI-H522
[31] = system: OVCAR-3
[32] = system: OVCAR-4
[33] = system: OVCAR-5
[34] = system: OVCAR-8
[35] = system: RPMI-8226
[36] = system: RXF 393
[37] = system: RXF 631
[38] = system: SF-268
[39] = system: SF-295
[40] = system: SF-539
[41] = system: SK-MEL-28
[42] = system: SK-MEL-2
[43] = system: SK-MEL-5
[44] = system: SK-OV-3
[45] = system: SN12C
[46] = system: SNB-19
[47] = system: SNB-75
[48] = system: SNB-78
[49] = system: SW-620
[50] = system: TK-10
[51] = system: U-251
[52] = system: UACC-257
[53] = system: UACC-62
[54] = system: UO-31
[55] = system: XF498

COC(=O)C1=C(C(=O)OC)C2(C3C(SC)=CC(C)(C)CC3S1)N(Cc1ccccc1)CCN2Cc1ccccc1 (stereo not given)
GI50 [1]: > 100 µM (inactive)
GI50 [2]: > 100 µM (inactive)
GI50 [3]: 48.2 µM (inactive)
GI50 [4]: > 100 µM (inactive)
GI50 [5]: > 100 µM (inactive)
GI50 [6]: > 100 µM (inactive)
GI50 [7]: > 100 µM (inactive)
GI50 [8]: > 100 µM (inactive)
GI50 [9]: > 100 µM (inactive)
GI50 [10]: > 100 µM (inactive)
GI50 [11]: > 100 µM (inactive)
GI50 [12]: > 100 µM
GI50 [13]: > 100 µM (inactive)
GI50 [14]: > 100 µM (inactive)
GI50 [15]: < 0.01 µM (active)
GI50 [16]: > 100 µM (inactive)
GI50 [17]: > 100 µM (inactive)
GI50 [18]: 62.7 µM (inactive)
GI50 [19]: > 100 µM (inactive)
GI50 [20]: > 100 µM (inactive)
GI50 [21]: > 100 µM (inactive)
GI50 [22]: > 100 µM (inactive)
GI50 [23]: > 100 µM (inactive)
GI50 [24]: > 100 µM (inactive)
GI50 [25]: > 100 µM (inactive)
GI50 [26]: > 100 µM (inactive)
GI50 [27]: > 100 µM (inactive)
GI50 [28]: > 100 µM (inactive)
GI50 [29]: > 100 µM (inactive)
GI50 [30]: > 100 µM (inactive)
GI50 [31]: > 100 µM (inactive)
GI50 [32]: > 100 µM (inactive)
GI50 [33]: > 100 µM (inactive)
GI50 [34]: > 100 µM (inactive)
GI50 [35]: 18.3 µM (inactive)
GI50 [36]: 54.7 µM (inactive)
GI50 [37]: > 100 µM (inactive)
GI50 [38]: > 100 µM (inactive)
GI50 [39]: > 100 µM (inactive)
GI50 [40]: > 100 µM (inactive)
GI50 [41]: > 100 µM (inactive)
GI50 [42]: > 100 µM (inactive)
GI50 [43]: 65.5 µM (inactive)
GI50 [44]: > 100 µM (inactive)
GI50 [45]: > 100 µM (inactive)
GI50 [46]: > 100 µM (inactive)
GI50 [47]: > 100 µM (inactive)
GI50 [48]: > 100 µM (inactive)
GI50 [49]: > 100 µM (inactive)
GI50 [50]: > 100 µM (inactive)
GI50 [51]: > 100 µM (inactive)
GI50 [52]: > 100 µM (inactive)
GI50 [53]: > 100 µM (inactive)
GI50 [54]: > 100 µM (inactive)
GI50 [55]: > 100 µM (inactive)
